Where a name gives a salt, the structure may show the parent alone. Read-outs that look alike come from different tables or passages of the source.
Biological target: human Fatty Acid Amide Hydrolase (FAAH) (Homo sapiens (Human), UniProt O00519)
Assay: biochemical
[1] = human FAAH, read-out: hFAAH IC50

Sequence of human Fatty Acid Amide Hydrolase (FAAH) (O00519 30-579): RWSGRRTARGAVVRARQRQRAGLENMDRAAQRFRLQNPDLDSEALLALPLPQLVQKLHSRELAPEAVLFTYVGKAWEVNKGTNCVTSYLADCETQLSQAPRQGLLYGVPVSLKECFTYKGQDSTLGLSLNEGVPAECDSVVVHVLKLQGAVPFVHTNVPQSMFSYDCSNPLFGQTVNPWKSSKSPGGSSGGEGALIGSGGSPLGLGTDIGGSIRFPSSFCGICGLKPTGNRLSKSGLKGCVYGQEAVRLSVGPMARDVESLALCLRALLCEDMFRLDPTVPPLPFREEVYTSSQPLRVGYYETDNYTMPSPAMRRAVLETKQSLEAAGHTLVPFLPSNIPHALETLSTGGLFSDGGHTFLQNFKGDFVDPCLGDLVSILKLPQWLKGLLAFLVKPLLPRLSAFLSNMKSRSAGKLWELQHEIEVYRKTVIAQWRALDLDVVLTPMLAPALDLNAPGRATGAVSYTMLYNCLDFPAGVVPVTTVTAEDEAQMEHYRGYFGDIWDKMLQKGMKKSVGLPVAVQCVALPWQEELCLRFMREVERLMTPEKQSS
Experimental: Material and Reagents: All reagents were purchased from Sigma-Aldrich unless specified. […] Chaperone protein groEL-groES in pGRO7 plasmid (Takara Bio Inc, Japan) was co-expressed with Fatty Acid Amide Hydrolase (FAAH) to improve solubility of the protein expressed in E coli. […] Briefly, the bacterial cultures in Luria Broth (2 L) were induced with arabinose (2 mM) and Isopropyl (β-D-1-thiogalactopyranoside, IPTG (1 mM), for 20 h at room temperature. The cultures were centrifuged at 1200×g for 10 min and the cell pellet was resuspended in 100 mL buffer containing of 20 mM NaPi (pH 7.4), 100 mM NaCl, Benzonase (500u), Aprotinin (1 μg/mL) and Leupeptin (1 μg/mL). Cells were lyzed by sonication (Amp 20%, Pulse 15 s×15, on ice) and the cell debris removed by centrifugation at 5000×g for 20 min. The supernatant was enriched via ultracentrifugation at 100,000×g for 1 h and the cell pellet was resuspended in 16 mL buffer containing 20 mM NaPi (pH 7.8), 500 mM NaCl, 1% Triton X-100. The resuspended cell extract was subjected to ultra-centrifugation at 100,000×g for 1 h and the enriched supernatant was used in the in vitro assay. All protein extraction steps were carried out on ice or at 4° C.
The assay was carried out in 200 μL volume in a 96-well black polystyrene plate (Greiner Bio-one, Germany). Each reaction consisted of human Fatty Acid Amide Hydrolase (FAAH) protein and 10 μM AAMCA in assay buffer containing 50 mM HEPES, 1 mM EDTA and 0.1% BSA, pH 7.4. The reaction was incubated with 2 μL of varying concentrations of inhibitor in DMSO (final concentration of DMSO 1%) with shaking for 1 min and monitored for increase in fluorescence in kinetic mode for 50 min. […] Rate of reaction as a function of the concentration of the inhibitor was used to determine the IC50 of the inhibitors. Data was analyzed using GraphPad Prism 5 (GraphPad Software Inc., San Diego, Calif.).

Q: Cc1cc(C(=O)NC2CCC(=Cc3cccc(Oc4ccc(C(F)(F)F)cn4)c3)CC2)cnc1N (single isomer, unassigned; (+)) [Example 20.A-5, (+)-6-Amino-5-methyl-N-[4-[[3-[[5-(trifluoromethyl)-2-pyridyl]oxy]phenyl]methylene]cyclohexyl]pyridine-3-carboxamide] was tested. Which IC50 [1] did it give?
A: The IC50 was 247 nM.

Q: Which IC50 (read-out: hFAAH IC50) does the source give for Nc1ncc(C(=O)NC2CCC(=Cc3cccc(Oc4ccc(C(F)(F)F)cn4)c3)CC2)cn1 (single isomer, unassigned; (+)) [Example 20.A-9] here?
A: Its IC50 is 40 nM.

Q: For O=C(NC1CCC(=Cc2cccc(Oc3ccc(C(F)(F)F)cn3)c2)CC1)c1cncnc1 (single isomer, unassigned; (+)) [Example 20.A-19, (+)-N-[4-[[3-[[5-(trifluoromethyl)-2-pyridyl]oxy]phenyl]methylene]cyclohexyl]pyrimidine-5-carboxamide], which IC50 (read-out: hFAAH IC50) is on record?
A: Its IC50 is 14.3 nM.

Q: How did the IC50 [1] turn out when Cc1nc(Oc2cccc(C=C3CCC(NC(=O)c4cnc(N)nc4)CC3)c2)ccc1Cl (single isomer, unassigned; (+)) [Example 20.A-21, (+)-2-Amino-N-[4-[[3-[(5-chloro-6-methyl-2-pyridyl)oxy]phenyl]methylene]cyclohexyl]pyrimidine-5-carboxamide] was run?
A: Its IC50 is 9 nM.

Q: With O=C(NC1CCC(=Cc2cccc(Oc3ccc(C(F)(F)F)cn3)c2)CC1)c1cccnc1 (single isomer, unassigned; (-)) [Example 20.A-2, (−)-N-[4-[[3-[[5-(Trifluoromethyl)-2-pyridyl]oxy]phenyl]methylene]cyclohexyl]pyridine-3-carboxamide] as the compound, how does the IC50 (hFAAH IC50) read?
A: The IC50 was 0.7 nM.

Q: With O=C(NC1CCC(=Cc2cccc(Oc3ccc(C(F)(F)F)cn3)c2)CC1)c1cncnc1 (single isomer, unassigned; (-)) [Example 20.A-20, (−)-N-[4-[[3-[[5-(Trifluoromethyl)-2-pyridyl]oxy]phenyl]methylene]cyclohexyl]pyrimidine-5-carboxamide] as the compound, how does the IC50 (read-out: hFAAH IC50) read?
A: Its IC50 is 0.8 nM.

Q: Which IC50 [1] does the source give for Cc1nc(Oc2cccc(C=C3CCC(NC(=O)c4cnc(N)nc4)CC3)c2)ccc1Cl (single isomer, unassigned; (-)) [Example 20.A-22, (−)-2-Amino-N-[4-[[3-[(5-chloro-6-methyl-2-pyridyl)oxy]phenyl]methylene]cyclohexyl]pyrimidine-5-carboxamide] here?
A: The IC50 was 1.1 nM.

Q: Which IC50 (hFAAH IC50) does the source give for O=C(Nc1cccnc1)C1CCC(=Cc2cccc(Oc3ccc(C(F)(F)F)cn3)c2)CC1 (stereo not shown) [Example 1.2, N-(3-Pyridyl)-4-[[3-[[5-(trifluoromethyl)-2-pyridyl]oxy]phenyl]-methylene]cyclohexanecarboxamide hydrochloride] here?
A: Its IC50 is 17 nM.

Q: How did the IC50 [1] turn out when O=C(Nc1cccnn1)C1CCC(=Cc2cccc(Oc3ccc(C(F)(F)F)cn3)c2)CC1 (stereo not shown) [Example 1.A-1, N-Pyridazin-3-yl-4-[[3-[[5-(trifluoromethyl)-2-pyridyl]oxy]phenyl]methylene]cyclohexanecarboxamide] was run?
A: The IC50 was 17 nM.

Q: For O=C(NC1CCC(=Cc2cccc(Oc3ccc(C(F)(F)F)cn3)c2)CC1)c1cccnc1 (stereo not shown) [Example 2.1, N-[4-[[3-[[5-(Trifluoromethyl)-2-pyridyl]oxy]phenyl]methylene]cyclohexyl]pyridine-3-carboxamide], which IC50 (hFAAH IC50) is on record?
A: Its IC50 is 2 nM.

Q: Cc1[nH]nc(C(F)(F)F)c1C(=O)NC1CCC(=Cc2cccc(Oc3ccc(C(F)(F)F)cn3)c2)CC1 (stereo not shown) [Example 2.A-36, 5-Methyl-3-(trifluoromethyl)-N-[4-[[3-[[5-(trifluoromethyl)-2-pyridyl]oxy]phenyl]methylene]cyclohexyl]-1H-pyrazole-4-carboxamide] was tested. Which inhibition at 0.1 µM (read-out: hFAAH % inhibition at 100 nM, human FAAH, 100 nM (tier I)) did it give?
A: The inhibition at 0.1 µM was 50%.

Q: With O=C(NC1CCC(=Cc2cccc(Oc3ccc(C(F)(F)F)cn3)c2)CC1)c1ccc(O)nc1 (stereo not shown) [Example 2.C-3, 6-Hydroxy-N-[4-[[3-[[5-(trifluoromethyl)-2-pyridyl]oxy]phenyl]methylene]cyclohexyl]pyridine-3-carboxamide] as the compound, how does the IC50 [1] read?
A: The IC50 was 19 nM.

Q: With Nc1ncccc1C(=O)NC1CCC(=Cc2cccc(Oc3ccc(C(F)(F)F)cn3)c2)CC1 (stereo not shown) [Example 2.C-5, 2-Amino-N-[4-[[3-[[5-(trifluoromethyl)-2-pyridyl]oxy]phenyl]methylene]cyclohexyl]pyridine-3-carboxamide] as the compound, how does the IC50 [1] read?
A: Its IC50 is 37 nM.
